Assay results from patent publication US10457703B2, “Bile acid derivatives as FXR/TGR5 agonists and methods of use thereof” (ENANTA PHARMACEUTICALS, INC., priority 2015, dated 2019).

Target: human FXR (NR1H4) (Homo sapiens (Human), UniProt Q96RI1)
Test: Human FXR (NR1H4) Assay (Gal4 promoter driven luciferase reporter, Indigo Bioscience kit);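 as to Efficacy (%): 100% equals the efficacy of CDCA; efficacy normalized to CDCA set as 100%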
Format: cell-based
Conditions: for EC50: Human FXR (NR1H4) Assay, potency ranges; for Emax: read-out: Efficacy (%)
Excerpt: ASSAYS Human FXR (NR1H4) Assay
Determination of a ligand mediated Gal4 promoter driven transactivation to quantify ligand binding mediated activation of FXR. FXR Reporter Assay kit purchased from Indigo Bioscience (Catalogue number: IB00601) to determine the potency and efficacy of compound developed by Enanta that can induce FXR activation. The principle application of this reporter assay system is to quantify functional activity of human FXR. The assay utilizes non-human mammalian cells, CHO (Chinese hamster ovary) cells engineered to express human NR1H4 protein (referred to as FXR). Reporter cells also incorporate the cDNA encoding beetle luciferase which catalyzes the substrates and yields photon emission. Luminescence intensity of the reaction is quantified using a plate-reading luminometer, Envision. Reporter Cells include the luciferase reporter gene functionally linked to an FXR responsive promoter. Thus, quantifying changes in luciferase expression in the treated reporter cells provides a sensitive surrogate measure of the changes in FXR activity. […] The assay is according to the manufacturer's instructions. In brief, the assay was performed in white, 96 well plates using final volume of 100 uL containing cells with different doses of compounds. Retrieve Reporter Cells from −80° C. storage. Perform a rapid thaw of the frozen cells by transferring a 10 ml volume of 37° C. cell recovery medium into the tube of frozen cells. Recap the tube of Reporter Cells and immediately place it in a 37° C. water bath for 5-10 minutes. Retrieve the tube of Reporter Cell Suspension from the water bath. Sanitize the outside surface of the tube with a 70% alcohol swab, and then transfer it into the cell culture hood. Dispense 90 μl of cell suspension into each well of the 96-well Assay Plate. Transfer the plate into 37° C. incubator, allowing the cells adherent to the bottom of the well. Dilute compounds in Dilution Plate (DP), and administrate to cells at Assay Plate (AP). DMSO content of the samples was kept at 0.2%. Cells were incubated for additional 22 hours before luciferase activities were measured. Thirty minutes before intending to quantify FXR activity, remove Detection Substrate and Detection Buffer from the refrigerator and place them in a low-light area so that they may equilibrate to room temperature. Remove the plate's lid and discard all media contents by ejecting it into an appropriate waste container. Gently tap the inverted plate onto a clean absorbent paper towel to remove residual droplets. Cells will remain tightly adhered to well bottoms. Add 100 μl of luciferase detection reagent to each well of the assay plate. Allow the assay plate to rest at room temperature for at least 5 minutes following the addition of LDR. Set the instrument (Envision) to perform a single 5 second “plate shake” prior to reading the first assay well. Read time may be 0.5 second (500 mSec) per well.

Sequence of human FXR (NR1H4) (Q96RI1 whole entry, the tested form may be a part): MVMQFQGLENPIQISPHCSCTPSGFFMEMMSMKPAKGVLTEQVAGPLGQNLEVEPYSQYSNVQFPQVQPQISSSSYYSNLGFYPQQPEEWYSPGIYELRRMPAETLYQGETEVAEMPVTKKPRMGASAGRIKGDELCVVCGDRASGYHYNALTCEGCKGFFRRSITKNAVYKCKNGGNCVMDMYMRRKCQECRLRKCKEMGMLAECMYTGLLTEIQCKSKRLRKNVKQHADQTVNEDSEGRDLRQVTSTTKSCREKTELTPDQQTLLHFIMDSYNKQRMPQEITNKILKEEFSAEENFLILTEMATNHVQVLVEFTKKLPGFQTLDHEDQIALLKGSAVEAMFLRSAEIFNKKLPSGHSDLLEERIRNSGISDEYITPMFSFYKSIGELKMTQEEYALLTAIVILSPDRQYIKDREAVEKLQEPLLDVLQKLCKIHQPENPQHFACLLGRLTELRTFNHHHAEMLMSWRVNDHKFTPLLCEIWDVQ

SMILES: CC[C@H]1[C@@H](O)[C@@H]2[C@H](CC[C@]3(C)[C@@H]([C@H](C)COC(=O)NS(=O)(=O)c4ccc(Oc5ccccc5)cc4)CC[C@@H]23)[C@@]2(C)CC[C@@H](O)C[C@@H]12 [Example 31]
- EC50: 100 to 1000 nM
- Emax: 207%

SMILES: CC[C@H]1[C@@H](O)[C@@H]2[C@H](CC[C@]3(C)[C@@H]([C@H](C)COC(=O)NS(=O)(=O)c4ccc(-c5ccccc5)cc4)CC[C@@H]23)[C@@]2(C)CC[C@@H](O)C[C@@H]12 [Example 32]
- EC50: < 100 nM
- Emax: 164%

SMILES: CC[C@H]1[C@@H](O)[C@@H]2[C@H](CC[C@]3(C)[C@@H]([C@H](C)COC(=O)NS(=O)(=O)c4ccc(-c5ccc(OC(F)(F)F)cc5)cc4)CC[C@@H]23)[C@@]2(C)CC[C@@H](O)C[C@@H]12 [Example 33]
- EC50: < 100 nM
- Emax: 266%

SMILES: CC[C@H]1[C@@H](O)[C@@H]2[C@H](CC[C@]3(C)[C@@H]([C@H](C)COC(=O)NS(=O)(=O)c4ccc(-c5ccc(C(C)(C)C)cc5)cc4)CC[C@@H]23)[C@@]2(C)CC[C@@H](O)C[C@@H]12 [Example 34]
- EC50: 100 to 1000 nM
- Emax: 186%

SMILES: CC[C@H]1[C@@H](O)[C@@H]2[C@H](CC[C@]3(C)[C@@H]([C@H](C)COC(=O)NS(=O)(=O)c4ccc(-c5ccncc5)cc4)CC[C@@H]23)[C@@]2(C)CC[C@@H](O)C[C@@H]12 [Example 35]
- EC50: 100 to 1000 nM
- Emax: 152%

SMILES: CC[C@H]1[C@@H](O)[C@@H]2[C@H](CC[C@]3(C)[C@@H]([C@H](C)COC(=O)NS(=O)(=O)c4ccc(-c5ncccn5)cc4)CC[C@@H]23)[C@@]2(C)CC[C@@H](O)C[C@@H]12 [Example 36]
- EC50: < 100 nM
- Emax: 205%

SMILES: CC[C@H]1[C@@H](O)[C@@H]2[C@H](CC[C@]3(C)[C@@H]([C@H](C)COC(=O)NS(=O)(=O)c4ccc(-n5cccn5)cc4)CC[C@@H]23)[C@@]2(C)CC[C@@H](O)C[C@@H]12 [Example 37]
- EC50: < 100 nM
- Emax: 207%

SMILES: CC[C@H]1[C@@H](O)[C@@H]2[C@H](CC[C@]3(C)[C@@H]([C@H](C)COC(=O)NS(=O)(=O)c4cccc(O)c4)CC[C@@H]23)[C@@]2(C)CC[C@@H](O)C[C@@H]12 [Example 38]
- EC50: 100 to 1000 nM
- Emax: 203%

SMILES: CC[C@H]1[C@@H](O)[C@@H]2[C@H](CC[C@]3(C)[C@@H]([C@H](C)COC(=O)NS(=O)(=O)c4ccc(O)cc4)CC[C@@H]23)[C@@]2(C)CC[C@@H](O)C[C@@H]12 [Example 39]
- EC50: 100 to 1000 nM
- Emax: 182%

SMILES: CC[C@H]1[C@@H](O)[C@@H]2[C@H](CC[C@]3(C)[C@@H]([C@H](C)COC(=O)NS(=O)(=O)c4ccc(N5C6CCC5CC6)cc4)CC[C@@H]23)[C@@]2(C)CC[C@@H](O)C[C@@H]12 [Example 44-a]
- EC50: < 100 nM
- Emax: 182%

SMILES: CC[C@H]1[C@@H](O)[C@@H]2[C@H](CC[C@]3(C)[C@@H]([C@H](C)COC(=O)NS(=O)(=O)c4ccc(N5CCCC5)nc4)CC[C@@H]23)[C@@]2(C)CC[C@@H](O)C[C@@H]12 [Example 44-b]
- EC50: < 100 nM
- Emax: 216%

SMILES: CC[C@H]1[C@@H](O)[C@@H]2[C@H](CC[C@]3(C)[C@@H]([C@H](C)COC(=O)NS(=O)(=O)c4ccc(N5CCC5)nc4)CC[C@@H]23)[C@@]2(C)CC[C@@H](O)C[C@@H]12 [Example 44-c]
- EC50: < 100 nM
- Emax: 183%

SMILES: CC[C@H]1[C@@H](O)[C@@H]2[C@H](CC[C@]3(C)[C@@H]([C@H](C)COC(=O)NS(=O)(=O)c4ccc(-n5cnnn5)nc4)CC[C@@H]23)[C@@]2(C)CC[C@@H](O)C[C@@H]12 [Example 44-d]
- EC50: 100 to 1000 nM
- Emax: 195%

SMILES: CC[C@H]1[C@@H](O)[C@@H]2[C@H](CC[C@]3(C)[C@@H]([C@H](C)COC(=O)NS(=O)(=O)c4ccc(-n5cnnn5)cc4)CC[C@@H]23)[C@@]2(C)CC[C@@H](O)C[C@@H]12 [Example 44-e]
- EC50: 100 to 1000 nM
- Emax: 204%

SMILES: CC[C@H]1[C@@H](O)[C@@H]2[C@H](CC[C@]3(C)[C@@H]([C@H](C)COC(=O)NS(=O)(=O)c4ccc(-n5cncn5)cc4)CC[C@@H]23)[C@@]2(C)CC[C@@H](O)C[C@@H]12 [Example 44-f]
- EC50: < 100 nM
- Emax: 216%

SMILES: CC[C@H]1[C@@H](O)[C@@H]2[C@H](CC[C@]3(C)[C@@H]([C@H](C)COC(=O)NS(=O)(=O)c4ccc(-n5ccnn5)cc4)CC[C@@H]23)[C@@]2(C)CC[C@@H](O)C[C@@H]12 [Example 44-g]
- EC50: < 100 nM
- Emax: 209%

SMILES: CC[C@H]1[C@@H](O)[C@@H]2[C@H](CC[C@]3(C)[C@@H]([C@H](C)COC(=O)NS(=O)(=O)c4ccc(-n5ccnc5)cc4)CC[C@@H]23)[C@@]2(C)CC[C@@H](O)C[C@@H]12 [Example 44-h]
- EC50: 100 to 1000 nM
- Emax: 194%

SMILES: CC[C@H]1[C@@H](O)[C@@H]2[C@H](CC[C@]3(C)[C@@H]([C@H](C)COC(=O)NS(=O)(=O)c4cccc(-c5ncco5)c4)CC[C@@H]23)[C@@]2(C)CC[C@@H](O)C[C@@H]12 [Example 44-i]
- EC50: 100 to 1000 nM
- Emax: 210%

SMILES: CC[C@H]1[C@@H](O)[C@@H]2[C@H](CC[C@]3(C)[C@@H]([C@H](C)COC(=O)NS(=O)(=O)c4ccc(C(C)(C)C)s4)CC[C@@H]23)[C@@]2(C)CC[C@@H](O)C[C@@H]12 [Example 44-j]
- EC50: < 100 nM
- Emax: 170%

SMILES: CC[C@H]1[C@@H](O)[C@@H]2[C@H](CC[C@]3(C)[C@@H]([C@H](C)COC(=O)NS(=O)(=O)c4ccc(OC)cc4)CC[C@@H]23)[C@@]2(C)CC[C@@H](O)C[C@@H]12 [Example 44-k]
- EC50: < 100 nM
- Emax: 158%

SMILES: CC[C@H]1[C@@H](O)[C@@H]2[C@H](CC[C@]3(C)[C@@H]([C@H](C)COC(=O)NS(=O)(=O)c4ccc(-n5cncn5)nc4)CC[C@@H]23)[C@@]2(C)CC[C@@H](O)C[C@@H]12 [Example 44-l]
- EC50: 100 to 1000 nM
- Emax: 165%

SMILES: CC[C@H]1[C@@H](O)[C@@H]2[C@H](CC[C@]3(C)[C@@H]([C@H](C)COC(=O)NS(=O)(=O)c4ccc(-n5ccnc5)nc4)CC[C@@H]23)[C@@]2(C)CC[C@@H](O)C[C@@H]12 [Example 44-m]
- EC50: < 100 nM
- Emax: 206%

SMILES: CC[C@H]1[C@@H](O)[C@@H]2[C@H](CC[C@]3(C)[C@@H]([C@H](C)COC(=O)NS(=O)(=O)c4ccc(-n5ccnn5)nc4)CC[C@@H]23)[C@@]2(C)CC[C@@H](O)C[C@@H]12 [Example 44-n]
- EC50: 100 to 1000 nM
- Emax: 307%

SMILES: CC[C@H]1[C@@H](O)[C@@H]2[C@H](CC[C@]3(C)[C@@H]([C@H](C)COC(=O)NS(=O)(=O)c4ccc(-c5ncco5)nc4)CC[C@@H]23)[C@@]2(C)CC[C@@H](O)C[C@@H]12 [Example 44-o]
- EC50: 100 to 1000 nM
- Emax: 292%

SMILES: CC[C@H]1[C@@H](O)[C@@H]2[C@H](CC[C@]3(C)[C@@H]([C@H](C)COC(=O)NS(=O)(=O)c4ccc(-c5ncco5)cc4)CC[C@@H]23)[C@@]2(C)CC[C@@H](O)C[C@@H]12 [Example 44-p]
- EC50: < 100 nM
- Emax: 218%

SMILES: CC[C@H]1[C@@H](O)[C@@H]2[C@H](CC[C@]3(C)[C@@H]([C@H](C)CCOC(=O)NS(=O)(=O)c4ccc(C(C)(C)C)cc4)CC[C@@H]23)[C@@]2(C)CC[C@@H](O)C[C@@H]12 [Example 45]
- EC50: < 100 nM
- Emax: 235%

SMILES: CC[C@H]1[C@@H](O)[C@@H]2[C@H](CC[C@]3(C)[C@@H]([C@H](C)CCOC(=O)NS(=O)(=O)c4ccc(F)cc4)CC[C@@H]23)[C@@]2(C)CC[C@@H](O)C[C@@H]12 [Example 46]
- EC50: < 100 nM
- Emax: 267%

SMILES: CC[C@H]1[C@@H](O)[C@@H]2[C@H](CC[C@]3(C)[C@@H]([C@H](C)CCOC(=O)NS(=O)(=O)C4CCCC4)CC[C@@H]23)[C@@]2(C)CC[C@@H](O)C[C@@H]12 [Example 47]
- EC50: < 100 nM
- Emax: 321%

SMILES: CC[C@H]1[C@@H](O)[C@@H]2[C@H](CC[C@]3(C)[C@@H]([C@H](C)CCOC(=O)NS(=O)(=O)C(C)(C)C)CC[C@@H]23)[C@@]2(C)CC[C@@H](O)C[C@@H]12 [Example 48]
- EC50: < 100 nM
- Emax: 282%
